The structures appear in SMILES notation. Bounds are passed on as bounds.

For the experiment, the target named is IDH1-R132H recombinant protein (Homo sapiens (Human), UniProt O75874, R132H). In words: IDH1-R132H enzymatic assay (inhibition of NADPH consumption, diaphorase/resazurin readout). The class given is biochemical. The following applies: read-out: Enzyme IDH1 R132H IC50 (Range). On the procedure: Assays were performed in a 384-well black plate. An aliquot of 250 nL of compound was incubated with 10 μL of 30 nM IDH1-R132H or 10 nM IDH1-R132C recombinant protein in assay buffer (50 mM Tris pH=7.5, 150 mM NaCl, 5 mM MgCl2, 0.1% (w/v) Bovine Serum Albumin, and 0.01% Triton X-100) in each well at 25° C. for 15 minutes. After the plate was centrifuged briefly, an aliquot of 10 μL of 2 mM α-ketoglutarate and 20 μM NADPH solution prepared in assay buffer was then added to each well and the reaction was maintained at 25° C. for 45 minutes. An aliquot of 10 μL of diaphorase solution (0.15 U/mL diaphorase and 30 µM Resazurin in assay buffer) was added to each well. The plate was maintained at 25° C. for 15 minutes and then read on a plate reader with excitation and emission wavelengths at 535 nm and 590 nm, respectively. The IC50 of a given compound was calculated by fitting the dose response curve of inhibition of NADPH consumption at a given concentration with the four parameter logistic equation.
Sequence of IDH1-R132H recombinant protein (O75874 whole entry R132H): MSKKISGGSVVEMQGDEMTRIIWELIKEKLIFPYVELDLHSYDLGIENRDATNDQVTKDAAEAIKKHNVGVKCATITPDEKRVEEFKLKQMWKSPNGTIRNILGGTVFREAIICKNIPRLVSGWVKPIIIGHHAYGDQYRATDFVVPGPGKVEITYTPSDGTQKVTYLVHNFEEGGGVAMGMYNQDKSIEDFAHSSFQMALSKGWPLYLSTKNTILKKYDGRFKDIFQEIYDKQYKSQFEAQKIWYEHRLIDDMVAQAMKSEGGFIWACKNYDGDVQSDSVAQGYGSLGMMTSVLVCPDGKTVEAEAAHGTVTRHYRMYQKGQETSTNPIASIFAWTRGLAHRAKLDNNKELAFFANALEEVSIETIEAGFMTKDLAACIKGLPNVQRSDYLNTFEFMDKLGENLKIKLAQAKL
On the technique in general: Resazurin is reduced to fluorescent resorufin, in cell work by metabolically active cells.
One may read the IC50 as the concentration that inhibits the measured activity by half. Turning to `C[C@H](Nc1nccc(N)n1)c1cc2cc(Cl)ccc2[nH]c1=O` [Compound I-139], the IC50 lay in the range of 1000 to 10000 nM.
`C[C@H](Nc1nccc(NC2CCOC2)n1)c1cc2cc(Cl)ccc2[nH]c1=O` (stereo partly drawn) [Compound I-122, 6-Chloro-3-((1S)-1-((4-((tetrahydrofuran-3-yl)amino)pyrimidin-2-yl)amino)ethyl) quinolin-2(1H)-one]: the IC50 was 1000 to 10000 nM.
On to `C[C@H](Nc1nccc(-c2cncnc2)n1)c1cc2cc(Cl)ccc2[nH]c1=O` [Compound I-62, (S)-3-(1-(4,5′-bipyrimidin-2-ylamino)ethyl)-6-chloroquinolin-2(1H)-one], for which the IC50 fell in the range of 1000 to 10000 nM.
With `CC(=O)N(c1ccnc(N[C@@H](C)c2cc3cc(Cl)ccc3[nH]c2=O)n1)C1CC1` [Compound I-28, (S)—N-(2-((1-(6-chloro-2-oxo-1,2-dihydroquinolin-3-yl)ethyl)amino)pyrimidin-4-yl)-N-cyclopropylacetamide] the figure was 100 to 1000 nM; with `O=C1CCCN1c1ccnc(NCc2cc3cc(Cl)ccc3[nH]c2=O)n1` [Compound I-50], 100 to 1000 nM.
On to `CC(=O)N(CC(C)(C)C)c1ccnc(N[C@@H](C)c2cc3cc(Cl)ccc3[nH]c2=O)n1` [Compound I-26, (S)—N-(2-((1-(6-Chloro-2-oxo-1,2-dihydroquinolin-3-yl)ethyl)amino)pyrmidin-4-yl)-N-neopentylacetamide], for which the IC50 was under 100 nM.
Regarding `C[C@H](Nc1nccc(-n2cccc2)n1)c1cc2cc(Cl)ccc2[nH]c1=O` [Compound I-52], the IC50 lay within 100 to 1000 nM.
In the case of `CC(C)[C@H]1COC(=O)N1c1ccnc(N[C@H](C)c2cc3cc(Cl)ccc3[nH]c2=O)n1` [Compound I-43, (S)-3-(2-(((R)-1-(6-Chloro-2-oxo-1,2-dihydroquinolin-3-yl)ethyl)amino)pyrimidin-4-yl)-4-isopropyloxazolidin-2-one], the IC50 was over 10000 nM.
As to `CC(C)CC(=O)N(c1ccnc(N[C@@H](C)c2cc3cc(Cl)ccc3[nH]c2=O)n1)C1CC1` [Compound I-24, (S)—N-(2-((1-(6-Chloro-2-oxo-1,2-dihydroquinolin-3-yl)ethyl)amino)pyrimidin-4-yl)-N-cyclopropyl-3-methylbutanamide], the IC50 fell in the range of 100 to 1000 nM.
With `C[C@H](Nc1nccc(NC(=O)N(C)C)n1)c1cc2cc(Cl)ccc2[nH]c1=O` [Compound I-126, (S)-3-(2-((1-(6-chloro-2-oxo-1,2-dihydroquinolin-3-yl)ethyl)amino)pyrimidin-4-yl)-1,1-dimethylurea] the figure was over 10000 nM; with `CC(=O)c1ccccc1-c1ccnc(N[C@@H](C)c2cc3cc(Cl)ccc3[nH]c2=O)n1` [Compound I-72], 1000 to 10000 nM.
Take `Cc1noc(C)c1-c1ccnc(N[C@@H](C)c2cc3cc(Cl)ccc3[nH]c2=O)n1` [Compound I-69]: the IC50 was in the range of 1000 to 10000 nM.
On to `Cc1cn(-c2ccnc(N[C@@H](C)c3cc4cc(Cl)ccc4[nH]c3=O)n2)cn1` [Compound I-57], for which the IC50 fell in the range of 100 to 1000 nM.
Take `CC(=O)N(Cc1ccnc(N[C@@H](C)c2cc3cc(Cl)ccc3[nH]c2=O)n1)C1CC1` [Compound I-137, (S)—N-((2-((1-(6-chloro-2-oxo-1,2-dihydroquinolin-3-yl)ethyl)amino)pyrimidin-4-yl)methyl)-N-cyclopropylacetamide]: the IC50 was in the range of 1000 to 10000 nM.
On to `COCC(=O)Nc1ccnc(N[C@@H](C)c2cc3cc(Cl)ccc3[nH]c2=O)n1` [Compound I-32, (S)—N-(2-((1-(6-Chloro-2-oxo-1,2-dihydroquinolin-3-yl)ethyl)amino)pyrimidin-4-yl)-2-methoxyacetamide], for which the IC50 is under 100 nM.
To `CC(C)N(c1ccnc(NCc2cc3ccccc3[nH]c2=O)n1)S(C)(=O)=O` [Compound I-164, N-isopropyl-N-(2-(((2-oxo-1,2-dihydroquinolin-3-yl)methyl)amino)pyrimidin-4-yl)methanesulfonamide] belongs over 10000 nM; to `C[C@H](Nc1nccc(SCc2ccccc2)n1)c1cc2cc(Cl)ccc2[nH]c1=O` [Compound I-110], 1000 to 10000 nM.
In the case of `Cc1nccn1-c1ccnc(N[C@@H](C)c2cc3cc(Cl)ccc3[nH]c2=O)n1` [Compound I-56], the IC50 lay in the range of 1000 to 10000 nM.
With `C[C@H](Nc1nccc(CNS(C)(=O)=O)n1)c1cc2cc(Cl)ccc2[nH]c1=O` [Compound I-132], the IC50 is 1000 to 10000 nM.
`CC(C)C[S@+]([O-])c1ccnc(N[C@@H](C)c2cc3cc(Cl)ccc3[nH]c2=O)n1` [Compound I-109]: the 50% inhibitory concentration (IC50) is under 100 nM.
Consider `C[C@H](Nc1nccc(C2(S(C)(=O)=O)CC2)n1)c1cc2cc(Cl)ccc2[nH]c1=O` [Compound I-136, (S)-6-Chloro-3-(1-(4-(1-(methylsulfonyl)cyclopropyl)pyrimidin-2-ylamino)ethyl)quinolin-2(1H)-one], for which the IC50 lay in the range of 100 to 1000 nM.
As for `C[C@H](Nc1nccc(N(CC(C)(C)O)S(C)(=O)=O)n1)c1cc2cc(Cl)ccc2[nH]c1=O` [Compound I-19], the IC50 was 1000 to 10000 nM.
On to `C[C@H](Nc1nccc(-c2cnoc2)n1)c1cc2cc(Cl)ccc2[nH]c1=O` [Compound I-70], for which the IC50 lay within 1000 to 10000 nM.
In the case of `Cc1cc(-c2ccnc(N[C@@H](C)c3cc4cc(Cl)ccc4[nH]c3=O)n2)n(C)n1` [Compound I-76], the IC50 was 1000 to 10000 nM.
On to `COc1cc(OC)nc(NCc2cc3cc(Cl)ccc3[nH]c2=O)n1` [Compound I-163, 6-Chloro-3-(((4,6-dimethoxypyrimidin-2-yl)amino)methyl)quinolin-2(1H)-one], for which the IC50 lay within 1000 to 10000 nM.
On to `C[C@H](Nc1nccc(CN(C2CC2)S(C)(=O)=O)n1)c1cc2cc(Cl)ccc2[nH]c1=O` [Compound I-6, (S)—N-((2-((1-(6-Chloro-2-oxo-1,2-dihydroquinolin-3-yl)ethyl)amino)pyrimidin-4-yl)methyl)-N-cyclopropylmethanesulfonamide], for which the IC50 was in the range of 100 to 1000 nM.
Turning to `COc1cc2[nH]c(=O)c([C@@H](C)Nc3nccc(N4CCOC4=O)n3)cc2cc1Cl` [Compound I-148], the IC50 is over 10000 nM.
With `C[C@H](Nc1nccc(CC(N)=O)n1)c1cc2cc(Cl)ccc2[nH]c1=O` [Compound I-130, (S)-2-(2-((1-(6-chloro-2-oxo-1,2-dihydroquinolin-3-yl)ethyl)amino)pyrimidin-4-yl) acetamide] the figure was 100 to 1000 nM.
For `C[C@H](Nc1nccc(N(CC(C)(C)C)S(C)(=O)=O)n1)c1cc2cc(Cl)ccc2[nH]c1=O` [Compound I-1], the half-maximal inhibitory concentration (IC50) was under 100 nM.
For `O=C1OCCN1c1ccnc(NC(CF)c2cc3cc(Cl)ccc3[nH]c2=O)n1` (stereo not drawn) [Compound I-171], the IC50 is over 10000 nM.
Turning to `C[C@H](Nc1nccc(N(C)C(=O)N(C)C)n1)c1cc2cc(Cl)ccc2[nH]c1=O` [Compound I-125, (S)-1-(2-((1-(6-chloro-2-oxo-1,2-dihydroquinolin-3-yl)ethyl)amino)pyrimidin-4-yl)-1,3,3-trimethylurea], the IC50 fell in the range of 1000 to 10000 nM.
With `C[C@H](Nc1nccc(NC(=O)CC2CCOCC2)n1)c1cc2cc(Cl)ccc2[nH]c1=O` [Compound I-27, (S)—N-(2-((1-(6-chloro-2-oxo-1,2-dihydroquinolin-3-yl)ethyl)amino)pyrimidin-4-yl)-2-(tetrahydro-2H-pyran-4-yl)acetamide], the IC50 was 100 to 1000 nM.
As to `CC(C)CC(=O)Nc1ccnc(N[C@@H](C)c2cc3cc(Cl)ccc3[nH]c2=O)n1` [Compound I-31], the IC50 fell in the range of 100 to 1000 nM.
In the case of `COC(=O)C(c1ccnc(N[C@@H](C)c2cc3cc(Cl)ccc3[nH]c2=O)n1)S(C)(=O)=O` (stereo partly drawn) [Compound I-134], the IC50 was 1000 to 10000 nM.
For `CC(C)CS(=O)(=O)c1ccnc(N[C@@H](C)c2cc3cc(Cl)ccc3[nH]c2=O)n1` [Compound I-108], the IC50 lay in the range of 100 to 1000 nM.
`CC(C)C[S@@+]([O-])c1ccnc(N[C@@H](C)c2cc3cc(Cl)ccc3[nH]c2=O)n1` [Compound I-106]: the IC50 fell in the range of 1000 to 10000 nM.
As to `CC(Nc1nccc(N2CCOC2=O)n1)c1cc2ccccc2[nH]c1=O` (stereo not drawn) [Compound I-49], the IC50 lay within 100 to 1000 nM.
With `CC(=O)N(c1ccnc(N[C@@H](C)c2cc3cc(Cl)ccc3[nH]c2=O)n1)C(C)(C)C` [Compound I-30] the figure was 1000 to 10000 nM; with `C[C@H](Nc1nccc(-c2ccnn2C)n1)c1cc2cc(Cl)ccc2[nH]c1=O` [Compound I-67, (S)-6-Chloro-3-(1-((4-(1-methyl-1H-pyrazol-5-yl)pyrimidin-2-yl)amino)ethyl)quinolin-2(1H)-one], 100 to 1000 nM; with `CC(=O)N(CC(C)C)c1ccnc(NC(C)c2cc3cc(Cl)ccc3[nH]c2=O)n1` (stereo not drawn) [Compound I-34], 100 to 1000 nM.
`C[C@H](Nc1nccc(CN2CCCS2(=O)=O)n1)c1cc2cc(Cl)ccc2[nH]c1=O` [Compound I-119, (S)-6-chloro-3-(1-((4-((1,1-dioxidoisothiazolidin-2-yl)methyl)pyrimidin-2-yl)amino)ethyl) quinolin-2(1H)-one]: the IC50 lay in the range of 100 to 1000 nM.
For the compound `Cc1n[nH]c(C)c1-c1ccnc(N[C@@H](C)c2cc3cc(Cl)ccc3[nH]c2=O)n1` [Compound I-82], the IC50 fell in the range of 1000 to 10000 nM.
With `CC(=O)Nc1ccccc1-c1ccnc(N[C@@H](C)c2cc3cc(Cl)ccc3[nH]c2=O)n1` [Compound I-73] the figure was 1000 to 10000 nM.
For the compound `CC(C)CC(c1ccnc(N[C@@H](C)c2cc3cc(Cl)ccc3[nH]c2=O)n1)S(C)(=O)=O` (stereo partly drawn) [Compound I-118], the IC50 fell in the range of 100 to 1000 nM.
As to `C[C@H](Nc1nccc(S(C)(=O)=O)n1)c1cc2cc(Cl)ccc2[nH]c1=O` [Compound I-105, (S)-6-Chloro-3-(1-((4-(methylsulfonyl)pyrimidin-2-yl)amino)ethyl)quinolin-2(1H)-one], the IC50 lay within 100 to 1000 nM.

The values are drawn from patent US10280150B2 (FORMA TM2, Inc., priority 2014, dated 2019).
